In patent publication US6123916A, “Therapeutic use of somatostatin peptides” (priority 1990, dated 2000):

Tested on: GH-release (serum GH-level)
Experiment: Depression of serum GH-levels in male rats 1 hour after s.c. administration (radio-immuno-assay)
Type: in vivo, rat
Conditions: blood taken 1 hour after administration
Protocol: This test is carried out employing male rats. The test-substance is administered at varying, logarithmically staggered doses employing at least 5 rats per dose. 1 hour after s.c. administration of the test substance blood is taken. The determination of the blood serum GH-level is effected by radio-immuno-assay.

C[C@H](N)C(=O)NCC(=O)N[C@H]1CSSC[C@@H](C(=O)O)NC(=O)[C@H](CO)NC(=O)[C@H]([C@@H](C)O)NC(=O)[C@H](Cc2ccccc2)NC(=O)[C@H]([C@@H](C)O)NC(=O)[C@H](CCCCN)NC(=O)[C@H](Cc2c[nH]c3ccccc23)NC(=O)[C@H](Cc2ccccc2)NC(=O)[C@H](Cc2ccccc2)NC(=O)[C@H](CC(N)=O)NC(=O)[C@H](CCCCN)NC1=O [natural somatostatin, somatostatin]
ID50 (amount of compound required to lower the GH content by 50% compared with untreated control animals): 0.95 mg/kg
